{"source": "patent US12102709B2", "about": "“Anti-obesity agent, anti-dementia agent, deodorant, anti-aging agent, anti-glycation agent, anti-type I allergy agent, hypotensive agent, flavor improving agent, muscle enhancing agent, and bone metabolism improving agent” (Mitsui Sugar Co., Ltd., priority 2018, dated 2024)", "tested_on": "C2C12 cells", "test": "Myotube cell differentiation promotion test (Fusion index)", "type": "cell-based, mouse", "details": "0.5 μM LDN-193189 with DMSO; 3 days; Comparative Example i2-2 55.1 ± 0.09", "method": "(Cells) • Mouse Myoblasts C2C12 Cells (ATCC, CRL-1772) (Culture Mediums) • Growth culture medium composition: DMEM culture medium, 10% FBS, antibiotics added • Differentiation culture medium composition: DMEM culture medium, 0.5% FBS, antibiotics added C2C12 cells were cultivated using a growth culture medium in a T-75 flask (75 cm^2 U-shaped canted neck cell culture flask, commercially available from Corning Co., Ltd.). The T-75 flask was put into a CO2 incubator (5% CO2, 37° C., wet) and the C2C12 cells were cultured. The culture medium was replaced every other day, and when an 80% confluence was reached, the cells were collected and used for the test. Here, in the following test, regarding a well plate for culturing C2C12 cells, a plate coated with gelatin according to the following coating method was used. Pre-cultured cells were seeded in a 96-well plate for fluorescence observation at 4×10^4 cells/0.1 mL/well using a growth culture medium. The well plate was cultured in a CO2 incubator (5% CO2, 37° C.) for 2 days. […] After the culture medium was replaced, culturing was performed for 3 days, and after fixing, immunostaining with anti-myosin heavy chain (MHC) antibodies was performed. […] A total number of Hoechst positive nuclei and the number of MHC-positive nuclei were measured, and the Fusion index (% of MHC+nuclei) was calculated according to the following formula. […]"}
{"smiles": "c1ccc2c(-c3cnn4cc(-c5ccc(N6CCNCC6)cc5)cnc34)ccnc2c1", "note": "[Positive Control i2, 4-(6-(4-(piperazine-1-yl)phenyl)pyrazolo[1,5-a]pyrimidin-3-yl)quinoline]", "values": [{"measurement": "Fusion index (% of MHC + nuclei)", "result": "63.7 ± 0.88", "unit": "%"}]}
